Measured values published in PubChem BioAssay AID977622 (Broad Institute, 2014).
Records with an inconclusive call do not appear. Active and inactive are the calls of the source.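 Rule for the calls: active = Green signal of the normal strain falls at least twice as much as red signal of the resistant mutant, with overall culture growth loss under a set limit; inconclusive = no clear call, values can overlap the other calls; inactive = the rest.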

Tested on: E. coli WT ribosome GFP fluorescence, mixed culture, 24 h
Assay: wild-type E. coli growth inhibition versus h38 humanized strain – h38 mutant RFP, wild-type GFP, cherry-pick, dose response (AID 977622)
[1] = E. coli mixed culture, 24 h, measured here: total growth OD600

Row | SMILES | AC50 | AC50 [1]
1 | Nc1nn(-c2ccccc2)c2ccc([N+](=O)[O-])cc12 | > 100 µM (inactive) | 
2 | CCC(=O)Nc1nc2ccc(NC(=O)c3cc(OC)c(OC)c(OC)c3)cc2s1 | > 100 µM (inactive) | 
3 | CC(=O)Nc1cccc(OCCCOc2cccc([N+](=O)[O-])c2)c1 |  | > 100 µM
4 | CC(=O)Nc1cccc2c1Cc1cc([N+](=O)[O-])ccc1-2 | > 100 µM (inactive) | 
5 | COc1cccc(-n2nnnc2SCC(=O)NCc2ccc3c(c2)OCO3)c1 | > 100 µM (inactive) | 
6 | CCOC(=O)c1sc(Nc2cccc(Cl)c2)nc1C |  | > 100 µM
7 | CCc1nn2cc(C(=O)c3cc(Cl)ccc3O)cnc2c1-c1ccc(F)cc1 | > 100 µM (inactive) | > 100 µM
8 | COc1ccc(C(=O)N(c2ccccc2)c2nccc3ccccc23)cc1OC | > 100 µM (inactive) | 
9 | Cc1ccc(-c2c[n+](CC(=O)OCc3ccccc3)c3n2CCC3)cc1 | > 100 µM (inactive) | 
10 | COc1ccccc1CNC(=O)CN1C(=O)NC(c2ccccc2)(c2ccccc2)C1=O | > 100 µM (inactive) | 
11 | C=CCNc1ccc2c(c1)OC[C@H](CC(C)C)NS2(=O)=O |  | > 100 µM
12 | CO[C@@H]1CN(C)C(=O)c2cc(NC(=O)C3CCCC3)ccc2OC[C@@H](C)N(C(=O)Nc2ccc(C(F)(F)F)cc2)C[C@H]1C | > 100 µM (inactive) | 49.5 µM
13 | COc1ccc(OC2C(=O)N(Cc3ccc4c(c3)OCO4)C2c2sccc2C)cc1 (stereo not given) | > 100 µM (inactive) | 
14 | COc1ccc2oc(C(=O)NCc3ccco3)c(C)c2c1 | > 100 µM (inactive) | 
15 | COc1ccc(OC)c(N(CC(=O)Nc2ccccc2F)S(=O)(=O)c2ccccc2)c1 | > 100 µM (inactive) | 
16 | COc1cc(C(N)=O)cc(Br)c1OCc1ccccc1 | > 100 µM (inactive) | 
17 | Cc1c(Cc2ccc3c(c2)OCO3)sc(NC(=O)C2CC2)c1C(N)=O | > 100 µM (inactive) | 34.7 µM
18 | CCOc1ccc(-c2nc(-c3cccs3)c(CC(=O)O)s2)cc1OC |  | > 100 µM
19 | CCCN(CC1CC1)C(=O)CSc1ncnc2sccc12 | > 100 µM (inactive) | 
20 | COC(=O)c1ccc(CN2CCCC(CO)(Cc3ccccc3F)C2)cc1 (stereo not given) | > 100 µM (inactive) | 
21 | Cc1cccc(S(=O)(=O)Nc2ccc(-c3cn4ccccc4n3)cc2)c1 | > 100 µM (inactive) | 26.7 µM
22 | CNC(=O)c1ccsc1NC(=O)c1ccc2c(c1)CCCC2 | > 100 µM (inactive) | > 100 µM
23 | Cc1cccc(CSCC(=O)N2CCN(S(=O)(=O)c3ccccc3C#N)CC2)c1 | > 100 µM (inactive) | 

Row | SMILES | AC50 | AC50 [1]
24 | O=C1c2ccccc2C(=O)N1CCc1c[nH]c2ccccc12 | > 100 µM (inactive) | > 100 µM
25 | COc1cc(C(=O)NCCc2c[nH]c3ccccc23)ccc1OCc1c(C)noc1C | > 100 µM (inactive) | > 100 µM
26 | O=[N+]([O-])c1ccc2nc(-c3ccccc3[N+](=O)[O-])[nH]c2c1 | > 100 µM (inactive) | > 100 µM
27 | Cc1cc(C(N)=O)nn1-c1c(Cl)cc(Cl)cc1Cl |  | > 100 µM
28 | COC(=O)CN1C(=S)N(c2ccc(Cl)cc2)C(=O)C1CC(=O)Nc1ccc(F)cc1 (stereo not given) | > 100 µM (inactive) | 
29 | C[C@@H]1CN([C@H](C)CO)C(=O)c2cccc(NC(=O)c3ccncc3)c2O[C@@H]1CN(C)S(=O)(=O)c1ccc(Cl)cc1 | > 100 µM (inactive) | 
30 | Cc1n[nH]c(C)c1S(=O)(=O)N1CCCC(C(=O)Nc2ccc(Br)cc2)C1 (stereo not given) |  | > 100 µM
31 | CCCCCCCNC(=O)c1ccc(N2CCC3(CC2)OCCO3)c([N+](=O)[O-])c1 |  | 40.4 µM
32 | COc1ccc(C(=O)NCCc2ccccn2)cc1S(=O)(=O)Nc1ccc(Br)cc1 | > 100 µM (inactive) | 
33 | O=C(O)c1ccc2c(c1)N(Cc1ccc(F)cc1)C(=O)c1ccccc1S2 | > 100 µM (inactive) | 
34 | Cc1ccc(C(=O)Nc2ccc(C)c(S(=O)(=O)Nc3ccccc3Cl)c2)s1 | > 100 µM (inactive) | 43.1 µM
35 | O=C(Nc1ccn(Cc2ccc(Cl)cc2)n1)c1ccccc1 |  | > 100 µM
36 | CC(=O)OC(COc1cccc(C)c1)Cn1cnc2ccccc21 (stereo not given) | > 100 µM (inactive) | 50.7 µM
37 | COc1ccc(OCC(=O)N2c3ccccc3CC2C)c([N+](=O)[O-])c1 (stereo not given) | > 100 µM (inactive) | > 100 µM
38 | Cc1nn(-c2ccc(N3CCCCC3)nn2)c(C)c1CCC(=O)Nc1ccc(F)cc1 | > 100 µM (inactive) | 
39 | CC[N+](CC)(CC#Cc1ccccc1)CC#Cc1ccccc1 | > 100 µM (inactive) | > 100 µM
40 | COC(=O)C[C@H]1C[C@@H]2c3cc(NC(=O)Nc4ccc(C(F)(F)F)cc4)ccc3O[C@@H]2[C@H](CO)O1 | > 100 µM (inactive) | > 100 µM
41 | CCc1ccc2[nH]c(C(=O)Nc3ccc4c(c3)OCO4)cc2c1 | > 100 µM (inactive) | 
42 | CS(=O)(=O)N1CC2CCCN2c2ccc(C(F)(F)F)cc21 (stereo not given) |  | > 100 µM
43 | O=S1(=O)N[C@H](Cc2ccccc2)COc2cc(N3CCSCC3)ccc21 |  | > 100 µM
44 | O=C(NCCCn1ccnc1)c1sc2cc([N+](=O)[O-])ccc2c1Cl |  | > 100 µM
45 | CNC(=O)c1ccsc1NC(=O)c1ccc(S(=O)(=O)N2CCc3ccccc32)cc1 |  | > 100 µM
46 | O=C(NCc1ccccc1)c1ccc(-c2cn[nH]c2)c2ccoc12 |  | > 100 µM

Row | SMILES | AC50 | AC50 [1]
47 | COc1ccccc1NS(=O)(=O)c1cc(C(=O)Nc2ccc(S(=O)(=O)Nc3onc(C)c3C)cc2)ccc1C | > 100 µM (inactive) | 
48 | CN(c1ccccc1)S(=O)(=O)c1cccc(NC(=O)CCN2C(=O)C3CCCCC3C2=O)c1 (stereo not given) | > 100 µM (inactive) | > 100 µM
49 | NS(=O)(=O)c1cccc(NC(=O)COc2ncnc3c2cnn3-c2ccccc2)c1 | > 100 µM (inactive) | 
50 | CN1OC[C@@H]2CN(C(=O)c3ccco3)[C@H](c3ccc(-c4ccc(C#N)cc4)cc3)C[C@@H]21 |  | > 100 µM
51 | COc1cc2nc(Nc3ccc(F)cc3)nc(N)c2cc1OC | > 100 µM (inactive) | 
52 | O=C1C(c2ccccc2)c2ccccc2N1Cc1ccccc1 (stereo not given) | > 100 µM (inactive) | 
53 | Cc1ccc(NC(=O)c2ccc([N+](=O)[O-])o2)c(C)c1 | > 100 µM (inactive) | 
54 | O=C(NCc1ccc2c(c1)OCO2)C1CCCN1S(=O)(=O)c1ccc(Cl)cc1 (stereo not given) | > 100 µM (inactive) | 
55 | COC(=O)c1c(NC(=O)CCC(=O)O)sc(Cc2ccccc2)c1C | > 100 µM (inactive) | 18.8 µM
56 | COC(=O)c1ccc(OS(=O)(=O)c2ccc(NC(C)=O)cc2)cc1 | > 100 µM (inactive) | 
57 | CCOC(=O)c1cccc(OS(=O)(=O)Cc2ccccc2)c1 | > 100 µM (inactive) | > 100 µM
58 | CCN(CC)CCN(C(=O)c1ccccc1OC)c1nc2ccc(F)cc2s1 | > 100 µM (inactive) | > 100 µM
59 | CC(C)N1CC2(CC(c3ccccc3C(F)(F)F)=NO2)CN1C(=O)c1ccco1 (stereo not given) | > 100 µM (inactive) | > 100 µM
60 | COCc1c(C#N)c(NCCc2ccc(F)cc2)nc(C)c1[N+](=O)[O-] | > 100 µM (inactive) | 
61 | O=C(O)c1cccnc1SCc1ccccc1Cl | > 100 µM (inactive) | 42.8 µM
62 | COc1ccccc1Cn1c(=S)[nH]c2ccccc2c1=O | > 100 µM (inactive) | 42.1 µM
63 | Cc1ccccc1S(=O)(=O)NC(=O)C1(C)CCN1C(=O)C1(c2ccc(Cl)cc2)CC1 (stereo not given) | > 100 µM (inactive) | 
64 | COc1ccccc1C(=O)Nc1ccc2c(c1)nc1n2CCN(C2CCCCC2)C1 | > 100 µM (inactive) | 
65 | O=C(CC(c1ccccc1)c1cc(Br)ccc1O)N1CCCC1 (stereo not given) | > 100 µM (inactive) | 
66 | Clc1ccc(-c2nc3ccc(Br)cn3c2Cc2ccsc2)cc1 | > 100 µM (inactive) | 35 µM
67 | COc1ccc(C)c2sc(N(CCN(C)C)C(=O)c3ccc(S(=O)(=O)N(C)c4ccccc4)cc3)nc12 |  | > 100 µM
68 | CC(=O)OC1N=C(c2ccccc2Cl)c2cc(Br)ccc2NC1=O (stereo not given) |  | > 100 µM
69 | CC(C)(C)C1CCC(OCC(O)CN2CCN(c3ccccn3)CC2)CC1 (stereo not given) | > 100 µM (inactive) | 44.7 µM

Row | SMILES | AC50 | AC50 [1]
70 | OC(COc1ccc(Cl)cc1)CN1CCN(c2ccccn2)CC1 (stereo not given) |  | > 100 µM
71 | CCN(CC)CCN(C(=O)c1ccc2c(c1)CCCC2)c1nc2ccc(F)cc2s1 | > 100 µM (inactive) | 46.3 µM
72 | O=C1NC(CCc2ccccc2)C(=O)N1Cc1cccc2ccccc12 (stereo not given) | > 100 µM (inactive) | 51.5 µM
73 | Cc1ccsc1C(=O)OCC(=O)N1CCc2ccccc2C1 | > 100 µM (inactive) | > 100 µM
74 | COC(=O)c1c(C)oc(C)c1S(=O)(=O)NC(c1ccccc1)c1ccccc1 | > 100 µM (inactive) | 35.7 µM
75 | Cc1nc(C)c(-c2ccn(S(=O)(=O)c3ccc(Cl)cc3)n2)o1 | > 100 µM (inactive) | 
76 | Nc1ccc(C(=O)OCCc2ccccc2)cc1 | > 100 µM (inactive) | 
77 | Fc1ccc(-c2nnc(-c3ccc4ccccc4c3)o2)cc1 | > 100 µM (inactive) | 
78 | Cc1ccc2nc(-c3ccc(Cl)cc3)c(Cc3ccccc3C(F)(F)F)n2c1 |  | > 100 µM
79 | Cc1cccc(NC(=O)c2c(C)nn(-c3ccccc3)c2Cl)c1 | > 100 µM (inactive) | 
80 | CCN(CC)S(=O)(=O)c1ccc(O)c(C(=O)OCC(=O)NC23CC4CC(CC(C4)C2)C3)c1 |  | > 100 µM
81 | COc1ccc(CC(=O)Nc2nc(-c3cc(OC)ccc3OC)cs2)cc1 | > 100 µM (inactive) | 8.91 µM
82 | O=C(Nc1ccc(C(=O)Nc2ccccc2Cl)cc1)c1cccnc1 |  | > 100 µM
83 | CCN(CC)S(=O)(=O)c1cccc(NC(=O)CNc2cccc(S(=O)(=O)N3CCCC3)c2)c1 | > 100 µM (inactive) | 
84 | CC(=O)Oc1c(Cl)cc(N(C(C)=O)S(=O)(=O)c2ccccc2)c2ccccc12 | > 100 µM (inactive) | 47.2 µM
85 | O=C(CCc1nc2ccccc2s1)OCC(=O)c1ccc[nH]1 | > 100 µM (inactive) | 
86 | COc1ccc(NC(=O)CSc2n[nH]c(-c3ccncc3)n2)c([N+](=O)[O-])c1 | > 100 µM (inactive) | > 100 µM
87 | COC(=O)c1ccc(CCc2cc(O)c(Br)cc2O)cc1 |  | 46.5 µM
88 | Cc1ccc(S(=O)(=O)NC(C)C(=O)NCc2ccc(Cl)cc2)cc1 (stereo not given) |  | > 100 µM
89 | O=[N+]([O-])c1ccccc1CN1CCN(S(=O)(=O)c2ccccc2)CC1 | > 100 µM (inactive) | 
90 | COc1ccc(NC(=O)Nc2cccc3c2O[C@H](CN(C)S(=O)(=O)c2ccc(Cl)cc2)[C@H](C)CN([C@H](C)CO)C3=O)cc1 | > 100 µM (inactive) | 44.2 µM
